From the kinase profiling compilation of Christmann-Franck et al. (2016)

Columns and labels:
Test in all cases: radiometric filter-binding kinase assay
ULK1 (human) = ULK1 (human) (UniProt O75385)
ULK2 (human) = ULK2 (human) (UniProt Q8IYT8)
ZAP70 (human) = ZAP70 (human) (UniProt P43403)
PDGFRA (human) = PDGFRA (human) (UniProt P16234)
DDR2 (human) = DDR2 (human) (UniProt Q16832)
PLK1 (human) = PLK1 (human) (UniProt P53350)
TESK1 (human) = TESK1 (human) (UniProt Q15569)
MAP4K5 (human) = MAP4K5 (human) (UniProt Q9Y4K4)
PTK6 (human) = PTK6 (human) (UniProt Q13882)
SIK3 (human) = SIK3 (human) (UniProt Q9Y2K2)
SIK2 (human) = SIK2 (human) (UniProt Q9H0K1)
IRAK1 (human) = IRAK1 (human) (UniProt P51617)
TSSK1B (human) = TSSK1B (human) (UniProt Q9BXA7)
PRKCG (human) = PRKCG (human) (UniProt P05129)
TLK1 (human) = TLK1 (human) (UniProt Q9UKI8)
TTBK2 (human) = TTBK2 (human) (UniProt Q6IQ55)
[1] = biological target: PRKAA1 PRKAB2 PRKAG1 (human) (UniProt O43741+Q13131+P54619)
TEK (human) = TEK (human) (UniProt Q02763)
STK24 (human) = STK24 (human) (UniProt Q9Y6E0); details: compound 1.0 µM
STK16 (human) = STK16 (human) (UniProt O75716)
TTBK1 (human) = TTBK1 (human) (UniProt Q5TCY1)
EIF2AK3 (human) = EIF2AK3 (human) (UniProt Q9NZJ5)
CSNK1G2 (human) = CSNK1G2 (human) (UniProt P78368)
CDK9 CCNT1 (human) = CDK9 CCNT1 (human) (UniProt P50750+O60563)
[2] = tested on: OXSR1 (human), O95747 [T185E]
ABL1 (human) = ABL1 (human) (UniProt P00519)
STK33 (human) = STK33 (human) (UniProt Q9BYT3)
MAP4K3 (human) = MAP4K3 (human) (UniProt Q8IVH8)
WNK1 (human) = WNK1 (human) (UniProt Q9H4A3)
Chain of WNK1 (human) (Q9H4A3 whole entry, looked up): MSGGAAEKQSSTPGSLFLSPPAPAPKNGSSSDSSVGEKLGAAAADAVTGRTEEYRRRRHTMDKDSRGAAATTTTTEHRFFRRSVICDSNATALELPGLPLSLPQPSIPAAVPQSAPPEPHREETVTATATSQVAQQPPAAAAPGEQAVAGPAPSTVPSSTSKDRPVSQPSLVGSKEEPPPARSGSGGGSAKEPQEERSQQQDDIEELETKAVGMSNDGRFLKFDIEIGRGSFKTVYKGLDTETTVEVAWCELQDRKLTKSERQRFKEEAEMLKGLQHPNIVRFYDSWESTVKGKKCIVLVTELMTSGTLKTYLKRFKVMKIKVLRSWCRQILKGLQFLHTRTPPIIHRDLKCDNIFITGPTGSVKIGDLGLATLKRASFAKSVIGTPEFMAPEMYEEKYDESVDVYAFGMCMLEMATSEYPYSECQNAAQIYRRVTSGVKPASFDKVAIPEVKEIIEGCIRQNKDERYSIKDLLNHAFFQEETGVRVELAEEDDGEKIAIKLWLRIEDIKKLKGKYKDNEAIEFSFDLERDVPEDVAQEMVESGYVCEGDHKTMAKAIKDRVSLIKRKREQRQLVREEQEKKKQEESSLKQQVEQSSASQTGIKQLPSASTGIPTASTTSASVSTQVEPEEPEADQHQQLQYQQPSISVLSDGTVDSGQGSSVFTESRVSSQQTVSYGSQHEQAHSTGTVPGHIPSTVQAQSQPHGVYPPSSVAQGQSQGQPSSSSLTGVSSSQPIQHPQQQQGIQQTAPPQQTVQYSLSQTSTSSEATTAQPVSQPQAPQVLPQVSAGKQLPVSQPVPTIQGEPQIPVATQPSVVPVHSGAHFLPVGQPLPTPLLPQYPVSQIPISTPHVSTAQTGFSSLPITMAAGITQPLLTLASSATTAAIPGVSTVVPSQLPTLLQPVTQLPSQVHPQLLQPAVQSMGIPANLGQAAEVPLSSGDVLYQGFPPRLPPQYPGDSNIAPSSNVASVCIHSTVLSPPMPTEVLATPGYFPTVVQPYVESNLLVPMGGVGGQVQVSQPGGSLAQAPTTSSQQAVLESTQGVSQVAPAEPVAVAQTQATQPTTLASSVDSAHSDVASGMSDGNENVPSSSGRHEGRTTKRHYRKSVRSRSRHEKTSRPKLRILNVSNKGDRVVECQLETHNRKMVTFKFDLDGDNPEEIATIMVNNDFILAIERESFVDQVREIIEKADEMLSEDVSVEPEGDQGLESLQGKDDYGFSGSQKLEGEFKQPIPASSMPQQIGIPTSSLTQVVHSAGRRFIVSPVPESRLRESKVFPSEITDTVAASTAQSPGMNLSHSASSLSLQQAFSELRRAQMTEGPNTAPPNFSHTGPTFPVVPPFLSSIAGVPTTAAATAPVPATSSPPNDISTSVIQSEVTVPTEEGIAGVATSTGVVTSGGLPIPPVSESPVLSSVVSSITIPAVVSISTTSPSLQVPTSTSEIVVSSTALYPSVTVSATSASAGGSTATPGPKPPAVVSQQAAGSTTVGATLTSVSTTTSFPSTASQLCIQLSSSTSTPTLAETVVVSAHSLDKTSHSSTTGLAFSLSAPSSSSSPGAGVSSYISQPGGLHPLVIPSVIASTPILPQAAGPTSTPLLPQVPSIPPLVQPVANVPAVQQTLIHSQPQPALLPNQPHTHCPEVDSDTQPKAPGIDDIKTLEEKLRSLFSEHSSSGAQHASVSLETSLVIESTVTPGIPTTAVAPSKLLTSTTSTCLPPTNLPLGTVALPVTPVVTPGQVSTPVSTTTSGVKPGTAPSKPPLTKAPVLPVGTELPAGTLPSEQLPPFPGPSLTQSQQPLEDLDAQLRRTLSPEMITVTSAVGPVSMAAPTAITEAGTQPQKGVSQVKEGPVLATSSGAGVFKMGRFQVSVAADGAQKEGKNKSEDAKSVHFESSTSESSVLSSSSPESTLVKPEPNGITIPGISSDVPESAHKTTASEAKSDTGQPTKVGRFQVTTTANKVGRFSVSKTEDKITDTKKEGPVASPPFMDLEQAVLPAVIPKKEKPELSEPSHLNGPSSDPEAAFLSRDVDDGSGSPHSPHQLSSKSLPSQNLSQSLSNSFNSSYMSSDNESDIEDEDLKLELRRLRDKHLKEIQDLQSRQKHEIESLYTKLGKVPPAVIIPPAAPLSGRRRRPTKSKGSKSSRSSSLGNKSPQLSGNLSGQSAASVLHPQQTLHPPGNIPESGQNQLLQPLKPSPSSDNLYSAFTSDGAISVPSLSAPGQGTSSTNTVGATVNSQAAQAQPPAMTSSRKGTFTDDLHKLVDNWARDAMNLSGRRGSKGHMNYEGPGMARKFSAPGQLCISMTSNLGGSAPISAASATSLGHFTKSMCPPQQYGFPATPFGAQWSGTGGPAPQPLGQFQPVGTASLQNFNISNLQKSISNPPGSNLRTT

Chain of CDK9 CCNT1 (human) (O60563 whole entry, looked up): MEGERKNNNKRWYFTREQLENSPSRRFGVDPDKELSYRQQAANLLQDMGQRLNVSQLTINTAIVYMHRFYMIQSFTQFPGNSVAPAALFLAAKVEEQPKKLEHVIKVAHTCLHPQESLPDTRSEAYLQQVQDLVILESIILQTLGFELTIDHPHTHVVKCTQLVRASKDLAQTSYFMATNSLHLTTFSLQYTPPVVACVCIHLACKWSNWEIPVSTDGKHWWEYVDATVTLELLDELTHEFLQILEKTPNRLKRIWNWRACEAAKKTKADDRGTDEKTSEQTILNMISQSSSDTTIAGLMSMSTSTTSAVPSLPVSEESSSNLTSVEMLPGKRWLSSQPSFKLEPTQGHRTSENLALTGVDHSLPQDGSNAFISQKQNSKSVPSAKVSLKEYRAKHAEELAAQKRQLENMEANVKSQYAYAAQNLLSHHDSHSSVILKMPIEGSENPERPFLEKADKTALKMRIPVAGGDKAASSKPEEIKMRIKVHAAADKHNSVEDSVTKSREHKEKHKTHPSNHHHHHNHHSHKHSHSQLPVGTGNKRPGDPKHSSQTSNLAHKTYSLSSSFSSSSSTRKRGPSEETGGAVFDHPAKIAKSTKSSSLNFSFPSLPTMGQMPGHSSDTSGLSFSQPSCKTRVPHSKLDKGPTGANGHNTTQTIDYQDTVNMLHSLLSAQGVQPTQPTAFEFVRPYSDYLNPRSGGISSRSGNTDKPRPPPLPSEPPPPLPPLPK
Chain of CDK9 CCNT1 (human) (P50750 whole entry, looked up): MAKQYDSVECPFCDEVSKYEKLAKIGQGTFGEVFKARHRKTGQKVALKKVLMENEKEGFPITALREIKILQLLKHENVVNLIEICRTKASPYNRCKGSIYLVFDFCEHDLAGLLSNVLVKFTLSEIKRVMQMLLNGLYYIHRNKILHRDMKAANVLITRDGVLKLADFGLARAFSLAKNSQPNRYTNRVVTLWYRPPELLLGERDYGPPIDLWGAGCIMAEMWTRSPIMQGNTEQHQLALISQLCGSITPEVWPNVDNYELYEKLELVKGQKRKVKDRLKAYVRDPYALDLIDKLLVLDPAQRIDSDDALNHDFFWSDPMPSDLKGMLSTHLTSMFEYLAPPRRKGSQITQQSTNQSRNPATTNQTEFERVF
Chain of STK33 (human) (Q9BYT3 whole entry, looked up): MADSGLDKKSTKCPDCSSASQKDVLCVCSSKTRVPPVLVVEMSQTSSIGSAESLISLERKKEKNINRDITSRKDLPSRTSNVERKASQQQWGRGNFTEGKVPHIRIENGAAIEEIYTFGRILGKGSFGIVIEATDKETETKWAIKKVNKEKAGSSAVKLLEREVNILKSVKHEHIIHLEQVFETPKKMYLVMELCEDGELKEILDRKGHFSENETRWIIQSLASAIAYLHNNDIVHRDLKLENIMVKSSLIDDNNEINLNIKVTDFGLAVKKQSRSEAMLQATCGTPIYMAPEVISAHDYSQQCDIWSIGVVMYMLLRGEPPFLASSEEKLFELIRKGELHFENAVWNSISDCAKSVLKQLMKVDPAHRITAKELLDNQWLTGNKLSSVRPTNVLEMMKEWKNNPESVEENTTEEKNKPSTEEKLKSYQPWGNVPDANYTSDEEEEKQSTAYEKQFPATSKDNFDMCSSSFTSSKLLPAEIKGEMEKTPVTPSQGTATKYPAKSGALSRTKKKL
Chain of TSSK1B (human) (Q9BXA7 whole entry, looked up): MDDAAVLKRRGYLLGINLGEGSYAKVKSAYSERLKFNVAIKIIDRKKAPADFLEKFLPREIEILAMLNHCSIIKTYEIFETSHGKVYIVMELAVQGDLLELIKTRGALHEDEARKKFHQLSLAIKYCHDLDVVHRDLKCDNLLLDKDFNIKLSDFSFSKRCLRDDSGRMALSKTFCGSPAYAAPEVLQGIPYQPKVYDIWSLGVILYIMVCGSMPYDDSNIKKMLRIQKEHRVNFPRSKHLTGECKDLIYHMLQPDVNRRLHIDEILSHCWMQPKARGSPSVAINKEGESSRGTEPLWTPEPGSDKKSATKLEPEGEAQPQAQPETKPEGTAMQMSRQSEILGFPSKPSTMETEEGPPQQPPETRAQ

residual activity (ULK1 (human); compound 0.1 µM): 115% | residual activity (ULK1 (human); compound 1.0 µM): 89% | residual activity (ULK1 (human); compound 10.0 µM): 75% | residual activity (ULK2 (human); compound 0.1 µM): 109% | residual activity (ULK2 (human); compound 10.0 µM): 54% | residual activity (ZAP70 (human); compound 0.1 µM): 93% | residual activity (ZAP70 (human); compound 1.0 µM): 100% | residual activity (PDGFRA (human); compound 0.1 µM): 104% | residual activity (PDGFRA (human); compound 1.0 µM): 108% | residual activity (DDR2 (human); compound 0.1 µM): 105% | residual activity (DDR2 (human); compound 1.0 µM): 101% | residual activity (DDR2 (human); compound 10.0 µM): 91% | residual activity (PLK1 (human); compound 0.1 µM): 102% | residual activity (PLK1 (human); compound 1.0 µM): 114% | residual activity (PLK1 (human); compound 10.0 µM): 98% | residual activity (TESK1 (human); compound 0.1 µM): 112% | residual activity (TESK1 (human); compound 1.0 µM): 111% | residual activity (TESK1 (human); compound 10.0 µM): 101% | residual activity (MAP4K5 (human); compound 0.1 µM): 111% | residual activity (MAP4K5 (human); compound 1.0 µM): 108% | residual activity (MAP4K5 (human); compound 10.0 µM): 61% | residual activity (PTK6 (human); compound 0.1 µM): 121% | residual activity (PTK6 (human); compound 1.0 µM): 94% | residual activity (PTK6 (human); compound 10.0 µM): 92% | residual activity (SIK3 (human); compound 0.1 µM): 98% | residual activity (SIK3 (human); compound 1.0 µM): 99% | residual activity (SIK3 (human); compound 10.0 µM): 73% | residual activity (SIK2 (human); compound 0.1 µM): 99% | residual activity (SIK2 (human); compound 1.0 µM): 86% | residual activity (SIK2 (human); compound 10.0 µM): 77% | residual activity (IRAK1 (human); compound 0.1 µM): 104% | residual activity (IRAK1 (human); compound 1.0 µM): 77% | residual activity (IRAK1 (human); compound 10.0 µM): 27% | residual activity (TSSK1B (human); compound 0.1 µM): 97% | residual activity (TSSK1B (human); compound 1.0 µM): 85% | residual activity (TSSK1B (human); compound 10.0 µM): 89% | residual activity (PRKCG (human); compound 0.1 µM): 118% | residual activity (PRKCG (human); compound 1.0 µM): 110% | residual activity (PRKCG (human); compound 10.0 µM): 101% | residual activity (TLK1 (human); compound 0.1 µM): 113% | residual activity (TLK1 (human); compound 1.0 µM): 107% | residual activity (TLK1 (human); compound 10.0 µM): 100% | residual activity (TTBK2 (human); compound 0.1 µM): 122% | residual activity (TTBK2 (human); compound 1.0 µM): 122% | residual activity (TTBK2 (human); compound 10.0 µM): 103% | residual activity ([1]; compound 0.1 µM): 68% | residual activity ([1]; compound 1.0 µM): 21% | residual activity ([1]; compound 10.0 µM): 6% | residual activity (TEK (human); compound 0.1 µM): 105% | residual activity (TEK (human); compound 1.0 µM): 86% | residual activity (TEK (human); compound 10.0 µM): 88% | residual activity (STK24 (human)): 109% | residual activity (STK16 (human); compound 0.1 µM): 117% | residual activity (STK16 (human); compound 1.0 µM): 118% | residual activity (STK16 (human); compound 10.0 µM): 105% | residual activity (TTBK1 (human); compound 0.1 µM): 103% | residual activity (TTBK1 (human); compound 1.0 µM): 104% | residual activity (TTBK1 (human); compound 10.0 µM): 96% | residual activity (EIF2AK3 (human); compound 0.1 µM): 114% | residual activity (EIF2AK3 (human); compound 1.0 µM): 101% | residual activity (EIF2AK3 (human); compound 10.0 µM): 73% | residual activity (CSNK1G2 (human); compound 0.1 µM): 123% | residual activity (CSNK1G2 (human); compound 1.0 µM): 112% | residual activity (CSNK1G2 (human); compound 10.0 µM): 102% | residual activity (CDK9 CCNT1 (human); compound 0.1 µM): 109% | residual activity (CDK9 CCNT1 (human); compound 1.0 µM): 96% | residual activity (CDK9 CCNT1 (human); compound 10.0 µM): 51% | residual activity ([2]; compound 0.1 µM): 113% | residual activity ([2]; compound 1.0 µM): 112% | residual activity ([2]; compound 10.0 µM): 118% | residual activity (ABL1 (human); compound 0.1 µM): 120% | residual activity (ABL1 (human); compound 1.0 µM): 113% | residual activity (ABL1 (human); compound 10.0 µM): 76% | residual activity (STK33 (human); compound 0.1 µM): 105% | residual activity (STK33 (human); compound 1.0 µM): 83% | residual activity (STK33 (human); compound 10.0 µM): 38% | residual activity (MAP4K3 (human); compound 0.1 µM): 98% | residual activity (MAP4K3 (human); compound 1.0 µM): 72% | residual activity (MAP4K3 (human); compound 10.0 µM): 41% | residual activity (WNK1 (human); compound 0.1 µM): 113% | residual activity (WNK1 (human); compound 1.0 µM): 108% | residual activity (WNK1 (human); compound 10.0 µM): 119%
Structure (SMILES): Cc1ccc(-c2ccc3c(ccc4sc5c(c43)NC[C@@H](C)NC5=O)n2)cn1
